pIC50: −log10 of the molar value.
Key:
dopamine transporter DAT = biological target: T1, dopamine transporter DAT (Homo sapiens, UniProt Q01959); test: Radioligand binding, dopamine transporter
T1 construct: purchased Eurofins

DAT = DAT (Homo sapiens, UniProt Q01959); test: Functional assay, DAT; type: biochemical
TRAAK = TRAAK (Homo sapiens, UniProt Q9NYG8); test: K2P family selectivity, TRAAK; type: cell-based
TASK-3 = TASK-3 (Homo sapiens, UniProt Q9NPC2); test: K2P family selectivity, TASK-3; type: cell-based
TASK-1 = TASK-1 (Homo sapiens, UniProt O14649); test: K2P family selectivity, TASK-1; type: cell-based
TASK-2 = TASK-2 (Homo sapiens, UniProt O95279); test: K2P family selectivity, TASK-2; type: cell-based
sodium channel site 2 = test: Radioligand binding, sodium channel site 2
[1] = radioligand binding displacement, 10 μM

T1 sequence (Q01959 whole entry): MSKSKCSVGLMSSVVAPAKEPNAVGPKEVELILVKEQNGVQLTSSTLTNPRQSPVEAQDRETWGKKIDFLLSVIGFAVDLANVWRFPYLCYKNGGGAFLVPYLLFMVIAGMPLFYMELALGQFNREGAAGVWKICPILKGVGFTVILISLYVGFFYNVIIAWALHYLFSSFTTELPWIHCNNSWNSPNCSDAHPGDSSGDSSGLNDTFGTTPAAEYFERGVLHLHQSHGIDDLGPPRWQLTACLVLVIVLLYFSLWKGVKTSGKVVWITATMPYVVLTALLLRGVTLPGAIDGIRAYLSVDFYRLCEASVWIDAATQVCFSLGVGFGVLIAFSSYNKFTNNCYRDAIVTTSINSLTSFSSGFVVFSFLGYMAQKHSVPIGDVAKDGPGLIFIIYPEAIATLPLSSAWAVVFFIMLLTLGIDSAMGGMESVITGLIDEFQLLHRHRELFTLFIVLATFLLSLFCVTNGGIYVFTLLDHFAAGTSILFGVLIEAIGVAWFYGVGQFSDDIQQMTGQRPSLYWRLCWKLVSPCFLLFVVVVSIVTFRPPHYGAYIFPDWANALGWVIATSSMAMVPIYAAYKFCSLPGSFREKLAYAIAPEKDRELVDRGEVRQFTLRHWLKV
Sequence of TASK-3 (Q9NPC2 whole entry, species assumed): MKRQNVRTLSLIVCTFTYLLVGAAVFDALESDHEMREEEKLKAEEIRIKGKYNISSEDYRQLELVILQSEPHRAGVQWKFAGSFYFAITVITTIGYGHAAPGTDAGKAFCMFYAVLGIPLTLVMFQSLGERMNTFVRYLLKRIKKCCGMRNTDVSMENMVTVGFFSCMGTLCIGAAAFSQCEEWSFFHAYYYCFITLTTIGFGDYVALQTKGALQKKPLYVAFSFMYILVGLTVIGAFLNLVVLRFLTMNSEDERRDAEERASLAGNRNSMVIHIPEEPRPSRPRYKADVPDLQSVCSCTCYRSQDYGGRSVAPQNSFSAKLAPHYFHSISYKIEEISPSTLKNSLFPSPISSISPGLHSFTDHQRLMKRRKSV
Sequence of TASK-2 (O95279 whole entry, species assumed): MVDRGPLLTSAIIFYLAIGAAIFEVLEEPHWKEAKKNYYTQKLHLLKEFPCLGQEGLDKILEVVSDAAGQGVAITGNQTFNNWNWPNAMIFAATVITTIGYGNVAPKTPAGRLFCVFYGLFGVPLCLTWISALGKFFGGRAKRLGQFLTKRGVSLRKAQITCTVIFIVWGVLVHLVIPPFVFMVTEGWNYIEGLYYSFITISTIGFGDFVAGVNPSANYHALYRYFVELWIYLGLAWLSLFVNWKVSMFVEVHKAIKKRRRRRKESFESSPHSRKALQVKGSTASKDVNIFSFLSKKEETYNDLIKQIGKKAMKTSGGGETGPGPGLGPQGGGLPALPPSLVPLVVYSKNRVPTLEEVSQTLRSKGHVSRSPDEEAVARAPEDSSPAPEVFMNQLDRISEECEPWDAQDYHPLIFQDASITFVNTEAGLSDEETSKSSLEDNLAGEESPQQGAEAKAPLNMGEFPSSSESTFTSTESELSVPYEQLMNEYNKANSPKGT
Sequence of TRAAK (Q9NYG8 whole entry, species assumed): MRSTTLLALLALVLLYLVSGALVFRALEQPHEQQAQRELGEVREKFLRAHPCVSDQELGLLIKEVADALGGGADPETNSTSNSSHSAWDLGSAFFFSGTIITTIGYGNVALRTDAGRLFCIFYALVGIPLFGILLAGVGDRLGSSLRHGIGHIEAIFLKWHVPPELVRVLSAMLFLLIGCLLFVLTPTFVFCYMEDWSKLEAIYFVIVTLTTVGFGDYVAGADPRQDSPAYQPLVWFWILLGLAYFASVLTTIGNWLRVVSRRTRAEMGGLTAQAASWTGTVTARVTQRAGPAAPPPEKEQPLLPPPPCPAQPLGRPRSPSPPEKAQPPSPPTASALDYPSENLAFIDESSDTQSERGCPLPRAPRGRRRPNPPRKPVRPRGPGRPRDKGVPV
Sequence of DAT (Q01959 whole entry, species assumed): as the sequence (Q01959 whole entry) above
Sequence of TASK-1 (O14649 whole entry, species assumed): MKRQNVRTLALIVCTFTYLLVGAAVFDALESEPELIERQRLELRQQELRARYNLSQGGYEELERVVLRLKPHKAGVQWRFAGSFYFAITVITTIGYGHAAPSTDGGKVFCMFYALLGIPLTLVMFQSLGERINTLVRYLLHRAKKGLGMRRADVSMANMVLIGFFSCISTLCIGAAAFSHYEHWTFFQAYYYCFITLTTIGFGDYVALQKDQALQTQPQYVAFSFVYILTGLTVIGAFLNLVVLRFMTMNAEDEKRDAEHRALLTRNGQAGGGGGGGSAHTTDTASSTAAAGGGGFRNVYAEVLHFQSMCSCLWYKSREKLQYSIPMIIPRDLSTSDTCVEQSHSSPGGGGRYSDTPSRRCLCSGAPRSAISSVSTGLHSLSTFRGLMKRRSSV

Compound	pIC50 (dopamine transporter DAT; follow-up binding)	inhibition at 10 µM (dopamine transporter DAT; [1])	pIC50 (DAT)	inhibition at 10 µM (TRAAK)	inhibition at 10 µM (TASK-3)	TASK-1 inhibition (TASK-1)	TASK-2 inhibition (TASK-2)	pIC50 (sodium channel site 2; follow-up binding)	sodium channel site 2 inhibition at 10 μM (sodium channel site 2; [1])
CC(=O)N1CCC(n2ncc(Cl)c2C(=O)Nc2ncc(C#Cc3ccccc3)cc2C)CC1 [Compound 10, 1-(1-Acetylpiperidin-4-yl)-4-chloro-N-(3-methyl-5-(phenylethynyl)pyridin-2-yl)-1H-pyrazole-5-carboxamide]	5.54	78%	5.92	84%	78%	nothing significant	nothing significant		
CC(=O)N1CC[C@@H](n2ncc(Cl)c2C(=O)Nc2ncc(C#Cc3ccc(F)cc3)cc2C)[C@H](F)C1 [Compound 11, 1-((3R,4R)-1-Acetyl-3-fluoropiperidin-4-yl)-4-chloro-N-(5-((4-fluorophenyl)ethynyl)-3-methylpyridin-2-yl)-1H-pyrazole-5-carboxamide]								5.04	56%
